Experimental data as given in ChEMBL document CHEMBL1146702, “Synthesis and nicotinic receptor activity of a hydroxylated tropane” (Bioorg Med Chem Lett, 2004).

Experiments:
[1] = molecular target: Neuronal acetylcholine receptor; alpha4/beta4 (Homo sapiens, UniProt P30926+P43681); test: Binding affinity against nicotinic acetylcholine receptor alpha4-beta4 using [3H]epibatidine as radioligand expressed in HEK293 cells or tsA cells; type: cell-based
[2] = molecular target: Neuronal acetylcholine receptor; alpha4/beta2 (Homo sapiens, UniProt P17787+P43681); test: Binding affinity against nicotinic acetylcholine receptor alpha4-beta2 using [3H]epibatidine as radioligand expressed in HEK293 cells or tsA cells; type: cell-based
Chain of Neuronal acetylcholine receptor; alpha4/beta2 (P17787 whole entry): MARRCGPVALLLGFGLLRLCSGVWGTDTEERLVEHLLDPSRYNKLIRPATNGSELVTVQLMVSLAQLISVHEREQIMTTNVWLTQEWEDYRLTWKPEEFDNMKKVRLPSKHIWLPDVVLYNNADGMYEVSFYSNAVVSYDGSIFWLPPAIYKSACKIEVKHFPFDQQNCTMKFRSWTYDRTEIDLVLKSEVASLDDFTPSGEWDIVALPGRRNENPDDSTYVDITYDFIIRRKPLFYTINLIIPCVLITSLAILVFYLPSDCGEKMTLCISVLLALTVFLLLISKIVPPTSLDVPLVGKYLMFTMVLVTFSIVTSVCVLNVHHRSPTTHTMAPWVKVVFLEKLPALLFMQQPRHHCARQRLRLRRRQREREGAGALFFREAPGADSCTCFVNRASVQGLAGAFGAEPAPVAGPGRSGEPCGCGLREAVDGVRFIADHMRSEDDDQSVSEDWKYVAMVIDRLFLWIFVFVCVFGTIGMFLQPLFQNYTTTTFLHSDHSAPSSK
Chain of Neuronal acetylcholine receptor; alpha4/beta2 (P43681 whole entry): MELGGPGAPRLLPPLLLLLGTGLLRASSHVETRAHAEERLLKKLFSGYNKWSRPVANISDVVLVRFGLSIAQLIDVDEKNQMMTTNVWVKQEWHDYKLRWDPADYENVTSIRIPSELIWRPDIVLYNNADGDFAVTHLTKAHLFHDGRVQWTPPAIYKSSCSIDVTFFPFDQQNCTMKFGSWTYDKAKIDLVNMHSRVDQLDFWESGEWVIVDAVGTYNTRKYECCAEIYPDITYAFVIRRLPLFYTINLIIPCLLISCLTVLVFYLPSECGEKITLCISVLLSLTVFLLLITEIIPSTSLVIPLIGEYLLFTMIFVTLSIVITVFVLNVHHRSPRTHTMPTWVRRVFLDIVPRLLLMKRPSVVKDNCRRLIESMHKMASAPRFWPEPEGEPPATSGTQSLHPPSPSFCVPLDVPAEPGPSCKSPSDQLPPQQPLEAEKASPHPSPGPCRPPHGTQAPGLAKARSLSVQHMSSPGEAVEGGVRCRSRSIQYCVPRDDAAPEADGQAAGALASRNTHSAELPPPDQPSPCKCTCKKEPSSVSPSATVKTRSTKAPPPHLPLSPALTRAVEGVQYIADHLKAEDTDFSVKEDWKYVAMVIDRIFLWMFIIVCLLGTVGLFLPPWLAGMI

[3] = molecular target: T1, Neuronal acetylcholine receptor; alpha3/beta4 (Homo sapiens, UniProt P30926+P32297); test: Agonistic potency against nicotinic acetylcholine receptor alpha3-beta4; type: functional
T1 sequence (P30926 whole entry): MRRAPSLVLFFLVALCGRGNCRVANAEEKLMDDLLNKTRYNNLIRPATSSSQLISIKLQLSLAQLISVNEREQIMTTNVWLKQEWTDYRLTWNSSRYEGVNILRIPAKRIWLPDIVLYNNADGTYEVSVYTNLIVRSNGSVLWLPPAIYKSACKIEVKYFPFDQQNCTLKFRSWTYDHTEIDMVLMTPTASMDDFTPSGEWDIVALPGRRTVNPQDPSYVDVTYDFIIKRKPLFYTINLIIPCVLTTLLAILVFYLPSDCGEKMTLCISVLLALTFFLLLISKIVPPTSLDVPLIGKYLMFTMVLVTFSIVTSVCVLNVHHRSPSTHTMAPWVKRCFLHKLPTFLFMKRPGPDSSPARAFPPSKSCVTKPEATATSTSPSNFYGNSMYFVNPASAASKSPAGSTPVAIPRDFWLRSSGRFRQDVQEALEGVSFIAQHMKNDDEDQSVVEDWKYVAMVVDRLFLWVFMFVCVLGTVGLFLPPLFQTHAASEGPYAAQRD
T1 sequence (P32297 whole entry): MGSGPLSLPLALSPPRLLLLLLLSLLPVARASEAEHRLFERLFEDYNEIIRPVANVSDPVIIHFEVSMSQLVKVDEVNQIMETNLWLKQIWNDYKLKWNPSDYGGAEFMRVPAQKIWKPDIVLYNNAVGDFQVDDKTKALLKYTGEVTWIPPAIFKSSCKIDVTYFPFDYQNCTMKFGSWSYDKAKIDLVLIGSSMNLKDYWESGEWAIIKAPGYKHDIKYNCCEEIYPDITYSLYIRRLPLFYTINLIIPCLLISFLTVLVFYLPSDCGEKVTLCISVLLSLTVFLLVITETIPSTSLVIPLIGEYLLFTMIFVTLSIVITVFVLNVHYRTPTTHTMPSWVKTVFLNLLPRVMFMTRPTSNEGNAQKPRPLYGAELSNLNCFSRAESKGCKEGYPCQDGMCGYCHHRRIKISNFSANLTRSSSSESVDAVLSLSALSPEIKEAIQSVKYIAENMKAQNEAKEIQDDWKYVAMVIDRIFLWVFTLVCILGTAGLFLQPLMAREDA

[4] = molecular target: Neuronal acetylcholine receptor; test: Binding affinity against nicotinic acetylcholine receptor using [3H]epibatidine as radioligand in rat brain tissue; type: tissue-based
[5] = molecular target: T1, Neuronal acetylcholine receptor; alpha3/beta4; test: Binding affinity against nicotinic acetylcholine receptor alpha3-beta4 using [3H]epibatidine as radioligand expressed in HEK293 cells or tsA cells; type: cell-based
[6] = molecular target: Neuronal acetylcholine receptor; alpha2/beta4 (Homo sapiens, UniProt P30926+Q15822); test: Binding affinity against nicotinic acetylcholine receptor alpha2-beta4 using [3H]epibatidine as radioligand expressed in HEK293 cells or tsA cells; type: cell-based
Chain of Neuronal acetylcholine receptor; alpha2/beta4 (P30926 whole entry): as the sequence (P30926 whole entry) above
Chain of Neuronal acetylcholine receptor; alpha2/beta4 (Q15822 whole entry): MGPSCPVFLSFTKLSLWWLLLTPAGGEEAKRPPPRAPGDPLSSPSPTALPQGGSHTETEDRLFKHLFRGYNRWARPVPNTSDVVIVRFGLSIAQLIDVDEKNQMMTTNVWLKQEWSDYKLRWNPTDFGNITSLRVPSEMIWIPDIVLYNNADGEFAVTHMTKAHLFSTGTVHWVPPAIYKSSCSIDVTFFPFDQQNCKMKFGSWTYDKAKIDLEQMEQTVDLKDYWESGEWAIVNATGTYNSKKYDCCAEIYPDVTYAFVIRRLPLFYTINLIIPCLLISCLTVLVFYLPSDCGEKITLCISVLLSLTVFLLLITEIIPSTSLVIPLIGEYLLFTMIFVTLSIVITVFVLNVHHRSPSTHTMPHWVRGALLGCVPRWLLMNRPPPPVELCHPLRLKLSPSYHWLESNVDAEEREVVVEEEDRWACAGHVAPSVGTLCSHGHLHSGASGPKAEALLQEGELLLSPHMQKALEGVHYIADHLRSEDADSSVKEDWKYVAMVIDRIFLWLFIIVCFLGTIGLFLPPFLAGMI

Chain of Neuronal acetylcholine receptor; alpha4/beta4 (P30926 whole entry): as the sequence (P30926 whole entry) above
Chain of Neuronal acetylcholine receptor; alpha4/beta4 (P43681 whole entry): as the sequence (P43681 whole entry) above

`OC1CC2CC(c3ccc(Cl)nc3)C(C1)N2` (stereo not drawn) gave a Ki [1] of 38 nM, a Ki [2] of 7.4 nM and an EC50 [3] of 2100 nM. It also gave a Ki [4] of 18 nM, a Ki [5] of 88 nM and a Ki [6] of 31 nM.

With `Clc1ccc(C2CC3CCC2N3)cn1` (stereo not drawn) [EPIBATIDINE] the Ki [6] was 0.091 nM.

Work on `CN1CCC[C@H]1c1cccnc1` [NICOTINE] yielded a Ki [6] of 103 nM.
